These results are taken from ChEMBL document CHEMBL5729469, “Compounds for treating ILK-mediated diseases” (2022).

The term pKd denotes the Kd on a negative log10 scale, so that one unit is a factor of ten. Lower therefore signals a large Kd.

The structures appear in SMILES notation. pKd: −log10 of the molar value.

The target of the experiment is Epidermal growth factor receptor (Homo sapiens, UniProt P00533). The experiment can be described thus: Biochemical Assay: Thus, while these compounds were extensively used in studying ILK-mediated cellular and disease processes, their reported inhibitory effects are probably due to unknown artifacts or indirect binding events. Next, we turned our attention to previously reported studies on kinase profiling and quantitative chemical proteomics. These studies suggested that a widely known lung ….
Sequence of Epidermal growth factor receptor (P00533 whole entry): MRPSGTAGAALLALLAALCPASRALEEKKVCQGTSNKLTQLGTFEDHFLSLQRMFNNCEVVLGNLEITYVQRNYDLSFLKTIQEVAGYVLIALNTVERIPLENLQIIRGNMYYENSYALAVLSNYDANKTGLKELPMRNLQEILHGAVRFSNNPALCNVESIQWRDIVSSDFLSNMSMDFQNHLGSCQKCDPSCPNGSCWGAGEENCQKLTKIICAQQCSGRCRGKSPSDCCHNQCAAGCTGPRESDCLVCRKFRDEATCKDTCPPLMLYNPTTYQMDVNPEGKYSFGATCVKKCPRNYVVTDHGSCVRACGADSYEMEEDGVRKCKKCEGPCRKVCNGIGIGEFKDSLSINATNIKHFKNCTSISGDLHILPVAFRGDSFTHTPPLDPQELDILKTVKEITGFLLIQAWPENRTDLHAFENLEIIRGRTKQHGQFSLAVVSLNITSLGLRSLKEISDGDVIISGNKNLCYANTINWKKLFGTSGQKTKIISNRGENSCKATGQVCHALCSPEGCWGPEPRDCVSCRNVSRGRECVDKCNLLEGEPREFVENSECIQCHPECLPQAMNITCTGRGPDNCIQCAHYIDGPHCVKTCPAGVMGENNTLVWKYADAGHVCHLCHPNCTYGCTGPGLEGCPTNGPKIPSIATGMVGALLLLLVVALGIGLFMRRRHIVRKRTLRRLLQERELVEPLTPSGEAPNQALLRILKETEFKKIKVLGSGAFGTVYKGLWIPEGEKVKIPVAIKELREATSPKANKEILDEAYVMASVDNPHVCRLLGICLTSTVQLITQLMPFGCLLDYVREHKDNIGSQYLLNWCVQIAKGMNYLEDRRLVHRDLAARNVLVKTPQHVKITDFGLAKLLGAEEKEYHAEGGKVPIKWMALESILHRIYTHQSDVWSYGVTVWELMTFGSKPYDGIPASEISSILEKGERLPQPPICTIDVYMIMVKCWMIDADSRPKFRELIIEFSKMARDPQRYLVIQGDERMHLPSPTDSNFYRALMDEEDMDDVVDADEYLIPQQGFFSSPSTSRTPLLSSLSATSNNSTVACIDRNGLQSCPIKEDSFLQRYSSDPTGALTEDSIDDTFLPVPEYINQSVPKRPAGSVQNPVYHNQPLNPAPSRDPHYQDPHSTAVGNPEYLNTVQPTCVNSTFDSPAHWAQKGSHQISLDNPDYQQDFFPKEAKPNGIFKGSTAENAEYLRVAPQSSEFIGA
`C#Cc1cc(Nc2ncnc3cc(OCCOC)ccc23)cc(OCCOCC)c1` had a negative-log Kd (pKd) of 4.75. The value for `C#Cc1cc(C#C)cc(Nc2ncnc3cc(OC)c(OC)cc23)c1` was 5.94; that for `C#Cc1cc(Nc2ncnc3cc(OCCOC)c(OCCOC)cc23)ccc1C` was 6.13.
